Data: EPA's ToxValDB 9.5

System: Rattus norvegicus
Conditions: oral, gavage
[1] = developmental, duration: 14 days, M/F, Crl:CD(SD), generation: F1, F1: Pelvis: Pelvis, Ischium Incompletely Ossified + F1: Pelvis: Pelvis, Pubis Incompletely Ossified + F1: Skull: Interparietal, Incomplete …
[2] = developmental, duration: 14 days, M/F, Crl:CD(SD), generation: F1, F1: Skull: Supraoccipital, Incomplete Ossification
[3] = developmental, duration: 14 days, M/F, Sprague-Dawley, generation: F1, F1: Developmental: Pelvic Girdle: Ischium, Incomplete Ossification + F1: Developmental: Pelvic Girdle: Pubis, Incomplete Ossification + F1: …
[4] = developmental, duration: 14 days, M/F, Sprague-Dawley, generation: F1, F1: Developmental: Pelvis: Pelvis, Ischium Incompletely Ossified + F1: Developmental: Pelvis: Pelvis, Pubis Incompletely Ossified + F1: …
[5] = developmental, duration: 14 days, M/F, Sprague-Dawley, generation: F1, F1: Pelvic Girdle: Ischium, Incomplete Ossification + F1: Pelvic Girdle: Pubis, Incomplete Ossification + F1: Rib: Rib, Thick + F1: Rib: Rib…
[6] = developmental, M/F, Sprague-Dawley, generation: F1, F1: Developmental: Whole Body: Lactation Index + F1: Developmental: Whole Body: Live Pups Born + F1: Developmental: Whole Body: No. of Pups …
[7] = reproduction developmental, duration: 14 days, F, Crl:CD(SD), generation: P0, P0: Developmental: Uterus: Implantation + P0: General Toxicity: Whole Body: Necropsy Appeared Normal + P0: Reproductive: Ovary: Corpora …
[8] = reproduction developmental, duration: 14 days, F, Crl:CD(SD), generation: P0, P0: Developmental: Uterus: Implantation + P0: Reproductive: Whole Body: Length of Gestation
[9] = reproduction developmental, duration: 14 days, F, Crl:CD(SD), generation: P0, P0: Whole Body: Clinical Observations + P0: Whole Body: Maternal Body Weight + P0: Whole Body: Maternal Body Weight Change + P0: Whole Body…
[10] = reproduction developmental, duration: 14 days, F, Crl:CD(SD), generation: P0, P0: Whole Body: Maternal Body Weight Change, Corrected
[11] = reproduction developmental, duration: 14 days, F, Sprague-Dawley, generation: P0, P0: Developmental: Uterus: Implantation + P0: Developmental: Uterus: Resorptions, Early + P0: Developmental: Uterus: Resorptions, Late + P0…
[12] = reproduction developmental, duration: 14 days, F, Sprague-Dawley, generation: P0, P0: Whole Body: Maternal Body Weight + P0: Whole Body: Maternal Body Weight Change + P0: Whole Body: Maternal Body Weight, Corrected
[13] = reproduction developmental, duration: 14 days, M/F, Crl:CD(SD), generation: F1, F1: Whole Body: Pup Weight + F1: Whole Body: Viability Index
[14] = reproduction developmental, duration: 70 days, F, Crl:CD(SD), generation: P0, P0: Uterus: Uterus (With Cervix) Weight, Absolute + P0: Whole Body: Clinical Observations + P0: Whole Body: Maternal Food Consumption, …
[15] = reproduction developmental, duration: 70 days, F, Crl:CD(SD), generation: P0, P0: Uterus: Uterus (With Cervix) Weight, Relative + P0: Whole Body: Maternal Body Weight Change + P0: Whole Body: Mortality + P0: Whole Body…
[16] = reproduction developmental, duration: 70 days, M/F, Crl:CD(SD), generation: F1, F1: Whole Body: Clinical Observations + F1: Whole Body: Lactation Index + F1: Whole Body: Pup Mortality + F1: Whole Body: Pup Weight …
[17] = reproduction developmental, duration: 70 days, M/F, Crl:CD(SD), generation: F1, F1: Whole Body: Pup Mortality + F1: Whole Body: Pup Weight Relative to Litter
[18] = reproduction developmental, duration: 70 days, M, Crl:CD(SD), generation: P0, P0: Whole Body: Clinical Observations + P0: Whole Body: Mortality

## OCCC(F)(F)C(F)(F)C(F)(F)C(F)(F)C(F)(F)C(F)(F)F [2-(Perfluorohexyl)ethanol]
developmental, duration: 14 days, M/F, Crl:CD(SD), generation: F1, F1: Developmental: Bone: Skeletal Malformation + F1: Developmental: Whole Body: Nursing Behavior + F1: Developmental: Whole Body: Pup Weight…
  NOAEL: 75 mg/kg-day
[1]
  LEL: 250 mg/kg-day
  NEL: 125 mg/kg-day
developmental, duration: 14 days, M/F, Crl:CD(SD), generation: F1, F1: Skull: Frontal, Incomplete Ossification + F1: Skull: Zygomatic Arch, Incomplete Ossification + F1: Uterus: Fetuses, Dead + F1: Uterus: …
  NEL: 250 mg/kg-day
[2]
  LEL: 125 mg/kg-day
  NEL: 25 mg/kg-day
[3]
  LOAEL: 125 mg/kg-day
  NOAEL: 25 mg/kg-day
[4]
  LOAEL: 125 mg/kg-day
  NOAEL: 25 mg/kg-day
[5]
  LEL: 250 mg/kg-day
  NEL: 125 mg/kg-day
[6]
  LOAEL: 125 mg/kg-day
  NOAEL: 25 mg/kg-day
[7]
  LOAEL: 225 mg/kg-day
  NOAEL: 75 mg/kg-day
[8]
  LOAEL: 225 mg/kg-day
  NOAEL: 75 mg/kg-day
Reproduction developmental, duration: 14 days, F, Crl:CD(SD), generation: P0, P0: Ovary: Corpora Lutea + P0: Uterus: Implantation + P0: Uterus: Resorptions, Early + P0: Uterus: Resorptions, Late + P0: Uterus: …
  NEL: 250 mg/kg-day
Reproduction developmental, duration: 14 days, F, Crl:CD(SD), generation: P0, P0: Ovary: Corpora Lutea + P0: Uterus: Implantation + P0: Whole Body: Length of Gestation + P0: Whole Body: Necropsy Appeared Normal + P0: …
  NEL: 225 mg/kg-day
Reproduction developmental, duration: 14 days, F, Crl:CD(SD), generation: P0, P0: Reproductive: Ovary: Corpora Lutea + P0: Reproductive: Whole Body: Reproductive Performance
  NOAEL: 225 mg/kg-day
[9]
  LEL: 250 mg/kg-day
  NEL: 125 mg/kg-day
[10]
  LEL: 125 mg/kg-day
  NEL: 25 mg/kg-day
[11]
  LOAEL: 125 mg/kg-day
  NOAEL: 25 mg/kg-day
Reproduction developmental, duration: 14 days, F, Sprague-Dawley, generation: P0, P0: Macroscopic Observations + P0: Ovary: Corpora Lutea + P0: Uterus: Implantation + P0: Uterus: Resorptions, Early + P0: Uterus: …
  NEL: 250 mg/kg-day
Reproduction developmental, duration: 14 days, F, Sprague-Dawley, generation: P0, P0: Reproductive: Ovary: Corpora Lutea + P0: Reproductive: Uterus: Uterine Weight, Gravid
  NOAEL: 250 mg/kg-day
[12]
  LEL: 250 mg/kg-day
  NEL: 125 mg/kg-day
Reproduction developmental, duration: 14 days, M/F, Crl:CD(SD), generation: F1, F1: Whole Body: Nursing Behavior + F1: Whole Body: Skeletal Malformation
  NEL: 225 mg/kg-day
[13]
  LEL: 225 mg/kg-day
  NEL: 75 mg/kg-day
Reproduction developmental, duration: 34 days, M, Crl:CD(SD), generation: P0, P0: Central Nervous System: Latency to mount + P0: Whole Body: Necropsy Appeared Normal
  NEL: 225 mg/kg-day
Reproduction developmental, duration: 70 days, F, Crl:CD(SD), generation: P0, P0: Lung: Lung Histopathology + P0: Mammary Gland: Mammary Gland Histopathology + P0: Ovaries: Ovary Histopathology + P0: Ovary: Ovary …
  NEL: 250 mg/kg-day
[14]
  LEL: 125 mg/kg-day
  NEL: 25 mg/kg-day
[15]
  LEL: 250 mg/kg-day
  NEL: 125 mg/kg-day
[16]
  LEL: 250 mg/kg-day
  NEL: 125 mg/kg-day
Reproduction developmental, duration: 70 days, M/F, Crl:CD(SD), generation: F1, F1: Whole Body: Live Pups Born + F1: Whole Body: Mean Pups Delivered + F1: Whole Body: Pup Mortality
  NEL: 250 mg/kg-day
[17]
  LEL: 125 mg/kg-day
  NEL: 25 mg/kg-day
Reproduction developmental, duration: 70 days, M, Crl:CD(SD), generation: P0, P0: Epididymides: Epididymides Histopathology + P0: Epididymis: Epididymis Weight, Left, Absolute + P0: Epididymis: Epididymis Weight, Left…
  NEL: 250 mg/kg-day
[18]
  LEL: 125 mg/kg-day
  NEL: 25 mg/kg-day
